Residues, ends and D or L forms follow the SMILES beside them. *: point of attachment. DOTA = O=C(O)CN1CCN(CC(=O)O)CCN(CC(=O)*)CCN(CC(=O)O)CC1; X1 = Cc1ccc(CCCC(=O)NCCOCCOCCOCCOCC(=O)*)cc1; βAla = NCCC(=O)O
Test system: NTS1R-positive AsPC-1 xenografts
Assay: in vivo
Set-up: species or system mice
Conditions: male, SCID, mouse, iv
Protocol: The distribution of [^67Ga]Ga/[^111In]In/[^177Lu]Lu-DT14D was investigated in male severe combined immunodeficiency (SCID) mice (49 mice in total, 6 weeks of age on arrival date, 22 ± 4 g, NCSR “Demokritos” Animal House, Athens, Greece) bearing NTS1R-positive AsPC-1 xenografts in their flanks. For xenograft induction, suspensions of freshly harvested AsPC-1 cells (5 × 10^6 cells in 150 µL sterile PBS) were subcutaneously injected into the mice’s flanks. The animals were kept under aseptic conditions and 4 weeks later developed well palpable masses at the inoculation sites (100 ± 50 mg) and biodistribution was conducted. On the day of the experiment, the animals received a bolus (100 μL, in vehicle: saline/EtOH 9/1 v/v) containing the radioligand via the tail vein. The following groups of four animals per time point, per treatment, were included per radioligand (the 4 h block groups comprised 3 animals instead) including the respective (radio)ligand amounts injected: i. 78–91 kBq [^67Ga]Ga-DT14D corresponding to 7–17 pmol DT14D at 1 and 4 h pi plus 4 h block (coinjection with 100 µg NT); ii. 74–92 kBq [^111In]In-DT14D corresponding to 20–25 pmol at 4 h (controls), 4 h pi (Entresto®; animals receiving a slurry of 12 mg/200 µL Entresto® oral gavage 30 min in advance) and 4 h block (coinjection with 100 µg NT); 24 h pi (including both controls and Entresto® mice groups); and iii. 730 kBq [^177Lu]Lu-DT14D corresponding to 40 pmol DT14D at 4, 24, 48, and 72 h pi plus 4 h block (co-injection with 100 µg NT). The animals were euthanized at predetermined time intervals, dissected and blood samples, organs of interest, and tumors were collected, weighed, and counted in the gamma counter. Biodistribution data were calculated as percent of the injected activity per gram tissue (%IA/g) with the aid of suitable standards of the administered activity. Results as the mean %IA/g values ± sd were obtained and statistical analysis was performed with PRISM^TM GraphPad—10.2 Software (San Diego, CA/USA), applying 2-way ANOVA with Tukey’s post hoc analysis, or, in the case of two variables, Šídák’s multiple comparisons test was adopted; differences with p < 0.05 were considered as statistically significant.

## CC[C@H](C)[C@H](NC(=O)[C@H](Cc1ccc(O)cc1)NC(=O)[C@@H]1CCCN1C(=O)[C@H](CCCNC(=N)N)NC(=O)[C@H](CCCNC(=N)N)NC(=O)[C@H](CCCCNC(=O)COCCOCCOCCOCCNC(=O)CCCc1ccc(C)cc1)NC(=O)CCNC(=O)CCNC(=O)CCNC(=O)CN1CCN(CC(=O)O)CCN(CC(=O)O)CCN(CC(=O)O)CC1)C(=O)N[C@@H](CC(C)C)C(=O)O [[^177Lu]Lu-DT14D] [metal not drawn] ({DOTA-βAla-βAla-βAla}-K(X1)RRPYIL-OH)
4 h
  Biodistribution, Blood: 0.72 ± 0.19 %IA/g
  Biodistribution, Femur: 0.45 ± 0.06 %IA/g
  Biodistribution, Heart: 0.32 ± 0.09 %IA/g
  Biodistribution, Intestines: 1.27 ± 0.14 %IA/g
  Biodistribution, Kidneys: 3.24 ± 0.20 %IA/g
  Biodistribution, Liver: 1.34 ± 0.14 %IA/g
  Biodistribution, Lungs: 1.63 ± 0.86 %IA/g
  Biodistribution, Muscle: 0.11 ± 0.02 %IA/g
  Biodistribution, Pancreas: 0.21 ± 0.03 %IA/g
  Biodistribution, Spleen: 1.36 ± 0.37 %IA/g
  Biodistribution, Stomach: 0.33 ± 0.12 %IA/g
  Tumor/Blood ratio: 5.51± 1.56
  Tumor/Heart ratio: 12.36 ± 3.08
  Tumor/Intestines ratio: 2.99 ± 0.57
  Tumor/Kidneys ratio: 1.17 ± 0.15
  Tumor/Liver ratio: 2.83 ± 0.45
  Tumor/Lungs ratio: 2.97 ± 1.75
  Tumor/Muscle ratio: 34.86 ± 6.98
  Tumor/Pancreas ratio: 18.16 ± 3.31
  Tumor/Spleen ratio: 2.83 ± 0.35
  Tumor/Stomach ratio: 12.29 ± 3.81
24 h
  Biodistribution, Femur: 0.34 ± 0.03 %IA/g
  Biodistribution, Intestines: 0.45 ± 0.03 %IA/g
  Biodistribution, Liver: 1.18 ± 0.18 %IA/g
  Biodistribution, Lungs: 0.17 ± 0.01 %IA/g
  Biodistribution, Muscle: 0.03 ± 0.00 %IA/g
  Biodistribution, Spleen: 1.06 ± 0.16 %IA/g
  Tumor/Blood ratio: 33.51 ± 2.94
  Tumor/Heart ratio: 25.00 ± 3.78
  Tumor/Intestines ratio: 3.95 ± 0.39
  Tumor/Kidneys ratio: 1.46 ± 0.33
  Tumor/Liver ratio: 1.54 ± 0.32
  Tumor/Lungs ratio: 9.32 ± 2.56
  Tumor/Muscle ratio: 58.07 ± 8.34
  Tumor/Pancreas ratio: 22.31 ± 1.64
  Tumor/Spleen ratio: 1.70 ± 0.32
  Tumor/Stomach ratio: 31.97 ± 8.07

## CC[C@H](C)[C@H](NC(=O)[C@H](Cc1ccc(O)cc1)NC(=O)[C@@H]1CCCN1C(=O)[C@H](CCCNC(=N)N)NC(=O)[C@H](CCCNC(=N)N)NC(=O)[C@H](CCCCNC(=O)COCCOCCOCCOCCNC(=O)CCCc1ccc(C)cc1)NC(=O)CCNC(=O)CCNC(=O)CCNC(=O)CN1CCN(CC(=O)O)CCN(CC(=O)O)CCN(CC(=O)O)CC1)C(=O)N[C@@H](CC(C)C)C(=O)O [[^111In]In-DT14D] [metal not drawn] ({DOTA-βAla-βAla-βAla}-K(X1)RRPYIL-OH)
4 h
  Biodistribution, Blood: 0.66 ± 0.19 %IA/g
  Biodistribution, Femur: 0.50 ± 0.06 %IA/g
  Biodistribution, Heart: 0.28 ± 0.06 %IA/g
  Biodistribution, Intestines: 1.34 ± 0.06 %IA/g
  Biodistribution, Liver: 0.45 ± 0.04 %IA/g
  Biodistribution, Lungs: 0.79 ± 0.12 %IA/g
  Biodistribution, Muscle: 0.13 ± 0.03 %IA/g
  Biodistribution, Pancreas: 0.24 ± 0.04 %IA/g
  Biodistribution, Spleen: 0.84 ± 0.07 %IA/g
  Biodistribution, Stomach: 0.39 ± 0.05 %IA/g
24 h
  Biodistribution, Blood: 0.46 ± 0.08 %IA/g
  Biodistribution, Femur: 1.35 ± 0.36 %IA/g
  Biodistribution, Heart: 0.62 ± 0.23 %IA/g
  Biodistribution, Intestines: 0.69 ± 0.09 %IA/g
  Biodistribution, Liver: 0.33 ± 0.08 %IA/g
  Biodistribution, Lungs: 0.61 ± 0.09 %IA/g
  Biodistribution, Muscle: 0.40 ± 0.10 %IA/g
  Biodistribution, Pancreas: 0.63 ± 0.39 %IA/g
  Biodistribution, Spleen: 1.59 ± 0.14 %IA/g
  Biodistribution, Stomach: 0.27 ± 0.10 %IA/g
  Tumor/Intestines ratio: 3.16 ± 0.49
  Tumor/Kidneys ratio: 1.42 ± 0.25
  Tumor/Spleen ratio: 1.84 ± 0.15

## CC[C@H](C)[C@H](NC(=O)[C@H](Cc1ccc(O)cc1)NC(=O)[C@@H]1CCCN1C(=O)[C@H](CCCNC(=N)N)NC(=O)[C@H](CCCNC(=N)N)NC(=O)[C@H](CCCCNC(=O)COCCOCCOCCOCCNC(=O)CCCc1ccc(C)cc1)NC(=O)CCNC(=O)CCNC(=O)CCNC(=O)CN1CCN(CC(=O)O)CCN(CC(=O)O)CCN(CC(=O)O)CC1)C(=O)N[C@@H](CC(C)C)C(=O)O [[^67Ga]Ga-DT14D] [metal not drawn] ({DOTA-βAla-βAla-βAla}-K(X1)RRPYIL-OH)
4 h
  Biodistribution, Blood: 2.15 ± 0.40 %IA/g
  Biodistribution, Femur: 1.67 ± 0.36 %IA/g
  Biodistribution, Heart: 0.76 ± 0.12 %IA/g
  Biodistribution, Intestines: 2.32 ± 0.39 %IA/g
  Biodistribution, Kidneys: 3.87 ± 0.96 %IA/g
  Biodistribution, Liver: 3.44 ± 0.15 %IA/g
  Biodistribution, Lungs: 1.34 ± 0.20 %IA/g
  Biodistribution, Muscle: 0.27 ± 0.04 %IA/g
  Biodistribution, Pancreas: 0.51 ± 0.08 %IA/g
  Biodistribution, Spleen: 1.75 ± 0.67 %IA/g
  Tumor/Blood ratio: 2.06 ± 0.21
  Tumor/Heart ratio: 5.75 ± 0.17
  Tumor/Intestines ratio: 1.89 ± 0.06
  Tumor/Liver ratio: 1.28 ± 0.24
  Tumor/Muscle ratio: 16.50 ± 2.36
  Tumor/Pancreas ratio: 8.69 ± 0.52
  Tumor/Spleen ratio: 2.50 ± 0.23

Reference: article PMC11944670, “Reshaping [^99mTc]Tc-DT11 to DT14D Tagged with Trivalent Radiometals for NTS1R-Positive Cancer Theranostics” (Pharmaceutics, 2025)
